Data as given in PubChem BioAssay AID1963833 (Molecular Pharmacology Branch, DTP, NCI, 2024).

Test system: 883617-216-R-J1-PDC complex spheroid viability
Test: Anticancer human tumor 883617-216-R-J1-PDC patient-derived bladder carcinoma cell line growth inhibition [POLQ]
Conditions: for IC50: curve of first compound; for viability, T/C: stronger effect = lower value
Description: Multicellular complex tumor spheroid response to Polymerase (POL) inhibitors (novobiocin, ART-558, RP6685) in combination with a variety of drugs and investigational agents in selected tumor cell lines
The POL inhibitors (novobiocin, ART-558, and RP6685) were evaluated both individually and in combination with standard of care and investigational anticancer small molecules within a complex spheroid model of solid tumors. . Complex spheroids include a stromal component modeled by human endothelial cells (HUVEC) and fibroblasts modeled by human mesenchymal stem cells (MSCs). The concentration ranges selected for each drug and investigational agent were based upon clinically achievable concentrations if the clinical Cmax of the agent was known.
Compounds. The drugs and investigational agents: novobiocin (NSC847541), ART-558 (NSC835418), RP-6685 (NSC848927), peposertib (NSC802822), ceralasertib (NSC780249), elimusertib (NSC800525), camonsertib (NSC841442), AZD-1390 (NSC803789), olaparib (NSC753686), talazoparib (NSC767125), rucaparib (NSC756644), sotorasib (NSC818433), MRTX-1133 (NSC836407), SN-38 (NSC673596), topotecan (NSC609699), epotoside (NSC141540), doxorubicin (NSC123127), gemcitabine (NSC613327), 5-fluorouracil (NSC19893), paclitaxel (NSC125973), vemurafenib (NSC761431), MSA-2 (NSC828583), SN-011 (NSC837082), adavosertib (NSC754352), prexasertib (NSC758257), carboplatin (NSC241240) and oxaliplatin (NSC266046), were obtained from the National Cancer Institute (NCI) Developmental Therapeutics Program Chemical Repository (21). The FDA-approved anticancer drug set is available from the Developmental Therapeutics Program at https://dtp.cancer.gov/organization/dscb/obtaining/. […] The stock solutions were prepared in dimethyl sulfoxide (DMSO, Sigma-Aldrich, St. Louis, MO, cat. D2650), except for the platinum compounds which were prepared in saline (Quality Biological, Gaithersburg, MD, cat. 114-055-101), at 800-fold the tested concentration and stored at -70 degrees C prior to their use. All drugs and investigational agents were tested over a range starting from a high concentration at or near the clinical Cmax and decreasing in half-log increments. If the clinical Cmax for an agent had not been determined, the highest concentration tested was 10 microM, except for SN-38, which was tested at a high concentration of 1 microM.
Cell Culture. All cells were maintained in an incubator at 37 degrees C and 5% CO2 with 95% humidity. The PDC lines were cultured according to standard operating procedures established by the NCI PDMR (https://pdmr.cancer.gov). Table 3 of the manuscript, lists the cell lines along with the number of the three cell types plated to form the mct-spheroids and media for tumor cell growth. After thawing, all PDC lines, except 997537-175-T-J1-PDC and 415267-285-R-J2-PDC, were cultured in Matrigel-coated flasks prepared with a working solution of 1X Ham's F-12 nutrient mix, without supplementation (Thermo Fisher Scientific, cat. 11765054), 100 U/mL penicillin-streptomycin (Thermo Fisher Scientific, cat. 15140122), and 2.5% Matrigel (Corning Inc., Corning, NY, cat. 354248) for the first three passages. The two PDC lines 997537-175-T-J1-PDC and 415267-285-R-J2-PDC were cultured on uncoated flasks. The 857933-349-R-J2-PDC line was cultured in 6C/Colon 1B media containing advanced DMEM/F-12 (Thermo Fisher Scientific, cat. 12634028), 10 mM HEPES (Thermo Fisher Scientific, cat. 15630080), 1X GlutaMAX supplement (Thermo Fisher Scientific, cat. 35050061), 0.1 mg/mL primocin (InvivoGen, San Diego, CA, cat. ant-pm-2), 10% defined fetal bovine serum, heat inactivated (HyClone Laboratories Inc., Logan, UT, cat. SH30070.03HI), 50% L-WRN conditioned media (ATCC, cat. CRL-3276), 1.25 mM N-Acetyl-L-cysteine (Sigma-Aldrich, cat. A9165), 10 mM nicotinamide (Sigma-Aldrich, cat. N0636), 1X B-27 supplement (Thermo Fisher Scientific, cat. 17504044), 1X N-2 supplement (Thermo Fisher Scientific, cat. […]

[1] = second compound 0.0316 µM, first compound 0.0316 µM
[2] = second compound 0.0316 µM, first compound 0.1 µM
[3] = second compound 0.0316 µM, first compound 0.316 µM
[4] = second compound 0.0316 µM, first compound 1 µM
[5] = second compound 0.0316 µM, first compound 3.16 µM
[6] = second compound 0.0316 µM, first compound 10 µM
[7] = second compound 0.1 µM, first compound 0.0316 µM
[8] = second compound 0.1 µM, first compound 0.1 µM
[9] = second compound 0.1 µM, first compound 0.316 µM
[10] = second compound 0.1 µM, first compound 1 µM
[11] = second compound 0.1 µM, first compound 3.16 µM
[12] = second compound 0.1 µM, first compound 10 µM
[13] = second compound 0.316 µM, first compound 0.0316 µM
[14] = second compound 0.316 µM, first compound 0.1 µM
[15] = second compound 0.316 µM, first compound 0.316 µM
[16] = second compound 0.316 µM, first compound 1 µM
[17] = second compound 0.316 µM, first compound 3.16 µM
[18] = second compound 0.316 µM, first compound 10 µM
[19] = second compound 1 µM, first compound 0.0316 µM
[20] = second compound 1 µM, first compound 0.1 µM
[21] = second compound 1 µM, first compound 0.316 µM
[22] = second compound 1 µM, first compound 1 µM
[23] = second compound 1 µM, first compound 3.16 µM
[24] = second compound 1 µM, first compound 10 µM
[25] = second compound 3.16 µM, first compound 0.0316 µM
[26] = second compound 3.16 µM, first compound 0.1 µM
[27] = second compound 3.16 µM, first compound 0.316 µM
[28] = second compound 3.16 µM, first compound 1 µM
[29] = second compound 3.16 µM, first compound 3.16 µM
[30] = second compound 3.16 µM, first compound 10 µM
[31] = second compound 10 µM, first compound 0.0316 µM
[32] = second compound 10 µM, first compound 0.1 µM
[33] = second compound 10 µM, first compound 0.316 µM
[34] = second compound 10 µM, first compound 1 µM
[35] = second compound 10 µM, first compound 3.16 µM
[36] = second compound 10 µM, first compound 10 µM
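Note: spheroids exposed to compounds for seven days before readout.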
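Throughout, for viability, T/C: 100% = DMSO vehicle control viability.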

For `Nc1ccn(C2OC(CO)C(O)C2(F)F)c(=O)n1` (centres undefined) + COC1C(OC(N)=O)C(O)C(Oc2ccc3c(O)c(NC(=O)c4ccc(O)c(CC=C(C)C)c4)c(=O)oc3c2C)OC1(C)C, the IC50 (second compound 0.0316 µM) was < 0.0316 µM, the IC50 (second compound 0.1 µM) was < 0.0316 µM and the IC50 (second compound 0.316 µM) was < 0.0316 µM. For the same compound, the IC50 (second compound 1 µM) was < 0.0316 µM, the IC50 (second compound 3.16 µM) was < 0.0316 µM and the IC50 (second compound 10 µM) was < 0.0316 µM. For the same compound, the viability, T/C [1] was 25.9%, the viability, T/C [2] was 30% and the viability, T/C [3] was 35.5%. For the same compound, the viability, T/C [4] was 36.7%, the viability, T/C [5] was 28.9% and the viability, T/C [6] was 36.5%. It also gave a viability, T/C [7] of 31%, a viability, T/C [8] of 34.8% and a viability, T/C [9] of 47%. It also gave a viability, T/C [10] of 39%, a viability, T/C [11] of 38.2% and a viability, T/C [12] of 31.2%. It also gave a viability, T/C [13] of 25.5%, a viability, T/C [14] of 35.1% and a viability, T/C [15] of 36.9%. For the same compound, the viability, T/C [16] was 34.3%, the viability, T/C [17] was 40.6% and the viability, T/C [18] was 32.1%. For the same compound, the viability, T/C [19] was 28.8%, the viability, T/C [20] was 37.7% and the viability, T/C [21] was 42.1%. The viability, T/C [22] was 41.7%, the viability, T/C [23] was 31.1% and the viability, T/C [24] was 26.9%. For the same compound, the viability, T/C [25] was 30.6%, the viability, T/C [26] was 32.6% and the viability, T/C [27] was 39.9%. It also gave a viability, T/C [28] of 33.5%, a viability, T/C [29] of 35.2% and a viability, T/C [30] of 28%. For the same compound, the viability, T/C [31] was 29.3%, the viability, T/C [32] was 31.3% and the viability, T/C [33] was 34.9%. For the same compound, the viability, T/C [34] was 35%, the viability, T/C [35] was 32.3% and the viability, T/C [36] was 32.1%.

In the case of `O=c1[nH]cc(F)c(=O)[nH]1` + COC1C(OC(N)=O)C(O)C(Oc2ccc3c(O)c(NC(=O)c4ccc(O)c(CC=C(C)C)c4)c(=O)oc3c2C)OC1(C)C, the IC50 (second compound 0.0316 µM) is reported as > 10 µM, the IC50 (second compound 0.1 µM) is reported as > 10 µM and the IC50 (second compound 0.316 µM) is reported as > 10 µM. For the same compound, the IC50 (second compound 1 µM) was > 10 µM, the IC50 (second compound 3.16 µM) was > 10 µM and the IC50 (second compound 10 µM) was > 10 µM. For the same compound, the viability, T/C [1] was 106%, the viability, T/C [2] was 96.4% and the viability, T/C [3] was 104%. The viability, T/C [4] was 105%, the viability, T/C [5] was 76.7% and the viability, T/C [6] was 59.8%. It also gave a viability, T/C [7] of 103%, a viability, T/C [8] of 105% and a viability, T/C [9] of 99.4%. It also gave a viability, T/C [10] of 94.6%, a viability, T/C [11] of 70.9% and a viability, T/C [12] of 60.9%. For the same compound, the viability, T/C [13] was 88.2%, the viability, T/C [14] was 99.6% and the viability, T/C [15] was 92.2%. It also gave a viability, T/C [16] of 93%, a viability, T/C [17] of 84.4% and a viability, T/C [18] of 63.5%. For the same compound, the viability, T/C [19] was 104%, the viability, T/C [20] was 94.2% and the viability, T/C [21] was 117%. The viability, T/C [22] was 80.2%, the viability, T/C [23] was 78% and the viability, T/C [24] was 69%. The viability, T/C [25] was 112%, the viability, T/C [26] was 92.8% and the viability, T/C [27] was 95.5%. The viability, T/C [28] was 91.7%, the viability, T/C [29] was 84.9% and the viability, T/C [30] was 65.4%. For the same compound, the viability, T/C [31] was 95.2%, the viability, T/C [32] was 99.6% and the viability, T/C [33] was 99.7%. For the same compound, the viability, T/C [34] was 85.3%, the viability, T/C [35] was 81.4% and the viability, T/C [36] was 78.2%.
